Common to all, as to assay: NCI tumour cell line growth inhibition, 48 h
For assay [1], the system named is IGROV1 ovarian.
The subject of assay [2] is SNB-19 CNS.
Assay [3] has as its system M14 melanoma.
Assay [4] deals with SF-539 CNS.
Assay [5] concerns OVCAR-5 ovarian.
For assay [6], the system named is SK-MEL-2 melanoma.
Assay [7] concerns HS 578T breast.
The test system of assay [8] is MALME-3M melanoma.
Assay [9] concerns DU-145 prostate.
For assay [10], the system named is OVCAR-8 ovarian.

“And” between values parts separate entries of the source, which are not always exact repeats. Identical values can stand only once.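 Protocol summary: plate cells (96-well), add compound at 5 concentrations, incubate 48 h, interpolate endpoints linearly. GI50 marks 50% less growth. The concentration for full growth arrest is given as TGI.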

In the case of `Cc1c(C(=O)/C=C/c2csc3ccccc23)[n+](=O)c2ccccc2n1[O-]`, the GI50 was 1.34 µM in assay [1]; 2.08 µM in [2]; 1.57 µM in assay [3]; 1.59 µM in assay [4]; 1.47 µM in [5]; 2.06 µM in assay [6]. Also, the GI50 in [7] is 1.56 µM; in assay [8], 2.29 µM; in [9] it was 1.46 µM; in assay [10], 2.37 µM. Further, the TGI in [1] is 3.04 µM; in assay [2], 4.77 µM; in assay [3], 3.21 µM; in assay [4] it was 3.12 µM; in assay [5], 2.94 µM; in assay [6], 4.23 µM. For the same compound, the TGI in [7] came to 5.22 µM; in assay [8], 8.06 µM; in [9], 2.78 µM; in assay [10] it was 6.31 µM.
In the case of `COc1cc(Cl)cc(-c2nn(C(=O)NCCN3CCOCC3)cc2-c2ccncc2)c1`, the GI50 was 4.98 µM in assay [1]; 7.58 µM in [2]; 5.42 µM in assay [3]; 4.57 µM in assay [4]; 37.8 µM in [5]; 10.9 µM in assay [6]. Also, the GI50 in [7] was 6.38 µM; in assay [8], 9.77 µM; in assay [9], 8.46 µM; in assay [10] it was 7.61 µM. The TGI was > 100 µM in assay [1]; > 100 µM in assay [2]; 39.5 µM in assay [3]; 25.9 µM in [4]; > 100 µM in assay [5]; 44.3 µM in [6]. The TGI in assay [7] was 41 µM; in assay [8], > 100 µM; in assay [9] it was 57.6 µM; in assay [10], > 100 µM.
As for `CCCN=Cc1cc(Cc2ccc(O)c(C=NCCC)c2)ccc1O`, the TGI in assay [1] was found to be 37.2 µM; in assay [2], 12.2 µM; in assay [3] it was 7.35 µM; in assay [4] it was 9 µM; in assay [5], 36.6 µM; in [6], 9.59 µM. Besides, the TGI in assay [7] came out at 92.2 µM; in assay [8] it was 50.5 µM; in [9], 31.1 µM; in assay [10], 20.4 µM.
Regarding `CN1CCN(CCc2cccc(C(=O)c3cnn(-c4ccc(F)cc4)c3N)c2)CC1`, the GI50 in assay [1], in assay [2], in assay [3], in [4], in assay [5] and in assay [6] was > 25 µM in each case. For the same compound, the GI50 in [7], in assay [8], in assay [9] and in assay [10] was > 25 µM throughout. Also, the TGI in [1], in assay [2], in [3], in [4], in [5] and in assay [6] was > 25 µM in each case. In addition, the TGI in assay [7], in [8], in [9] and in assay [10] was > 25 µM in each case.
On to `CN(C)/C=C/c1nnc([N+](=O)[O-])s1`, for which the TGI was 79.3 µM in [2]; 29.1 µM in assay [3]; 23.4 µM in assay [4]; 39.3 µM in [6]; 42.6 µM in [7]; 14.6 µM in assay [8]. Moreover, the TGI in assay [9] is 30.8 µM; in [10] it was 53.3 µM.
Turning to `COc1ccc(N2C(C)=C(C#N)C34C(=O)N(c5ccccc5)C(=O)C3=C(O)C=CC24O)cc1` (configuration not stated), the GI50 in assay [1] is 2.11 µM; in assay [2], 18.4 µM; in [3], 13.6 µM; in assay [4], 6.82 µM; in assay [5] it was 18.1 µM; in assay [6] it was 19.5 µM. Also, the GI50 in [7] is 24.1 µM; in [8], 19.2 µM; in assay [9], 10.5 µM; in assay [10], 23.3 µM. For the same compound, the TGI was 21.1 µM in [1]; 50.2 µM in assay [2]; 38.6 µM in [3]; 25.3 µM in [4]; 73.8 µM in [5]; 46.3 µM in assay [6]. Moreover, the TGI was > 100 µM in assay [7], 53.4 µM in [8], 26.8 µM in assay [9] and > 100 µM in assay [10].
For the compound `CNC(=O)c1cncc(/C=C/c2ccccc2C)c1`, the GI50 in assay [1], in assay [2], in [3], in assay [4], in assay [5] and in assay [6] was > 25 µM in each case. The GI50 in assay [7], in assay [8], in [9] and in assay [10] was > 25 µM each time. Moreover, the TGI in [1], in assay [2], in assay [3], in assay [4], in assay [5] and in assay [6] was > 25 µM in each case. Further, the TGI in assay [7], in assay [8], in assay [9] and in assay [10] was > 25 µM each time.
Regarding `COc1cc(C2c3cc4c(cc3[C@@H](Nc3ccc(C#N)cc3)C3COC(=O)[C@H]23)OCO4)cc(OC)c1O` (some centres not stated), the GI50 in [1] is 1.76 µM; in assay [2] it was 0.314 µM and 0.768 µM; in [4], 0.431 µM; in [5], 2.96 µM and 3.3 µM; in assay [6], 1.77 µM and 8.87 µM; in assay [7], 3.38 µM. Besides, the GI50 is 0.217 µM and 1.9 µM in assay [8]; 1.51 µM in assay [10]. Besides, the TGI in assay [1] is 31.1 µM and 8.65 µM; in assay [4], 11.3 µM and 3.64 µM; in assay [5], 31.7 µM and 59.9 µM and > 100 µM; in assay [7] it was 29.1 µM and > 100 µM; in [8], 9.66 µM and 2.69 µM and 17.2 µM; in assay [9], 1.17 µM and 6.87 µM.

(Values after PubChem BioAssay (NCI).)
